Reference: patent US20230255965A1, “TRPV4 INHIBITOR AS A THERAPEUTIC AGENT FOR OCULAR DISEASES” (RaQualia Pharma Inc., priority 2020, published 2023)
Where two headings read alike, the source gives them in different places.

What was measured:
[1] = tested on: human retinal microvascular endothelial cells (HRMECs); assay: Cell permeability using human retinal microvascular endothelial cells, transendothelial electrical resistance (TEER); type: cell-based; details: for change of transepithelial electrical resistance (TEER values): 24 hours after addition; for inhibition at 10 µM: Homo sapiens, HRMEC, read-out: inhibition rate of increased vascular permeability (TEER)
Description: Human retinal microvascular endothelial cells (HRMECs) are seeded onto Transwell inserts at a density of 1.0×10^5 cells/mL. The medium is changed every other day and the cells are cultured for 7 days. Transendothelial electrical resistance (TEER) is measured using a measurement device and cup-shaped electrode (Endohm-6; World Precision Instruments, USA). One hour after the addition of a TRPV4 inhibitor (final concentration: 1 μM, 10 μM) or buffer for evaluation to cells, VEGF (final concentration: 10 ng/mL) or GSK1016790A, a TRPV4 agonist (final concentration: 10 nM) is added, and 24 hours after the addition, transepithelial electrical resistance values (TEER values) is measured 24 hours after addition. The transepithelial electrical resistance value (TEER value) is an index for evaluating barrier functions such as tight junctions of cells.

[2] = tested on: mouse retinal vein occlusion model; assay: Histological evaluation for retinal vein occlusion: thickness of the retinal inner nuclear layer (INL), HE staining; type: in vivo; details: single intravitreal administration of 2 μL, 24 hours after irradiation, vs vehicle
Description: (§1) Eight-week-old male ddY mice are anesthetized with a mixture of ketamine (120 mg/kg) and xylazine (6 mg/kg) administered intramuscularly. After that, 0.15 mL of a photosensitizer, rose bengal (20 mg/kg) is administered into the tail vein, and a laser (wavelength 532 nm) is irradiated into a vein three optic disc diameters away from the optic disc in the mouse right eye to occlude the retinal vein and form a pathological condition. Laser irradiation is performed using an attachment of Micron4 (Phoenix Research lab., CA, USA), which is a fundus imaging device, under prescribed laser irradiation conditions (wavelength 532 nm, spot size 50 μm, irradiation time 5 seconds, laser power 50 mW). The vein is occluded by 10 to 15 laser irradiations per vein.
Immediately after laser irradiation, a TRPV4 inhibitor is administered, and 24 hours after irradiation, the eyeball is removed and a retinal histopathology specimen is prepared. Hematoxylin-eosin (HE) staining is performed to measure the thickness of the retinal inner nuclear layer (INL). Other stains (e.g., TUNEL stain) may be used for analysis as needed.
Administration of a TRPV4 inhibitor is performed by intravitreal administration (local administration). The conditions of the solution for administration are investigated in advance, and the concentration for intravitreal administration is determined. However, if the conditions for systemic administration are met, systemic administration may be included in the group composition. For intravitreal administration, the dosage should be 2 μL/eye as a single dose. For systemic administration, the number of doses and dosage should be determined after a separate consideration.
After a single intravitreal administration of 2 μL of a TRPV4 inhibitor (25 μM, 250 μM) or vehicle, whether the TRPV4 inhibitor restores the retinal edema is evaluated.

[3] = tested on: tumor necrosis factor alpha (TNFα); assay: Expression of TNFα in retina of mouse retinal vein occlusion model by Western blotting; type: in vivo; details: 250 μM, 2 μL intravitreal immediately after vascular occlusion, retina 1 day after occlusion
Description: as §1
Using the same method as in Example 3, the retinal veins of mice are occluded by laser irradiation into the veins of the eye.
Immediately after laser irradiation, 2 μL of a TRPV4 inhibitor (250 μM) is administered intravitreally. One day after vascular occlusion, the mice are euthanized by cervical dislocation, and then retinas isolated from removed eyeballs are evaluated by Western blotting.

[4] = tested on: mouse model of retinal vein occlusion; assay: Late drug administration 7 days after vascular occlusion: suppression of retinal thinning (OCT); type: in vivo; details: 250 μM, 2 μL intravitreal 7 days after occlusion, measured 1 day after administration
Description: as §1
(§2) Seven days after vascular occlusion, the retina is damaged, the retinal layer structure is thinned, the blood flow is reduced, and a retinal nonperfusion area exists. Whether the TRPV4 inhibitor restores this condition is evaluated. […]
(§3) Seven days after vascular occlusion, 2 μL of a TRPV4 inhibitor (250 μM) or vehicle is administered intravitreally. One day after administration (8 days after occlusion), the retinal layers are imaged using optical coherence tomography (OCT) and intraocular blood flow is measured using laser speckle.

[5] = tested on: mouse model of retinal vein occlusion; assay: Late drug administration 7 days after vascular occlusion: ocular blood flow (laser speckle); type: in vivo; details: 250 μM, 2 μL intravitreal 7 days after occlusion, measured 1 day after administration
Description: as §1, §2, §3

[6] = tested on: mouse model of retinal vein occlusion; assay: Late drug administration 7 days after vascular occlusion: retinal nonperfusion area (FITC-dextran flat mount); type: in vivo; details: 250 μM, 2 μL intravitreal 7 days after occlusion, 1 day after administration
Description: as §1, §2
as §3, with “speckle. […]” for “speckle.”

diabetic model mice = details: cited from earlier work; for retinal edema: single intravitreal administration
[7] = final concentration 10 μM, compared to VEGF-added group, 24 hours

CC(C)C[C@H](NC(=O)c1cc2ccccc2s1)C(=O)N1CCN(C(=O)[C@H](CO)NS(=O)(=O)c2ccc(Cl)cc2Cl)CC1 [GSK1016790A]
change of transepithelial electrical resistance (TEER values) ([1]; GSK1016790A final concentration 10 nM): decreases transepithelial electrical resistance

Cc1c(C(=O)Nc2cccc(C(F)(F)F)c2)cc(-c2ccccc2)n1CCCN1CCOCC1 [Compound D, N-(3-(trifluoromethyl)phenyl)-2-methyl-1-(3-morpholinopropyl)-5-phenyl-1H-pyrrole-3-carboxamide]
inhibition rate of the increase in the thickness of the retinal inner nuclear layer (INL) ([2]; 250 μM): 64%
inhibition at 10 µM [1, 7]: ≥ 30%

O=C([C@H](O)c1cccc(Cl)c1)N1CCc2nc(C3(c4ccccc4)CC3)[nH]c(=O)c2C1 [Compound A, (R)-6-(2-(3-chlorophenyl)-2-hydroxyacetyl)-2-(1-phenylcyclopropyl)-5,6,7,8-tetrahydropyrido[4,3-d]pyrimidin-4(3H)-one]
inhibition rate of the increase in the thickness of the retinal inner nuclear layer (INL) ([2]; 25 μM): 40%
inhibition rate of the increase in the thickness of the retinal inner nuclear layer (INL) ([2]; 250 μM): 76%
inhibition rate of increased vascular permeability (TEER) ([1]; final concentration 1 μM, 10 μM, VEGF 10 ng/mL or GSK1016790A 10 nM added, 24 hours): ≥ 50%
inhibition rate of the increase in TNF expression [3]: ≥ 50%
inhibition of retinal thinning [4]: ≥ 30%
improvement of ocular blood flow reduction rate [5]: ≥ 30%
inhibition rate of nonperfusion areas in the retina [6]: ≥ 50%

VEGF
change of transepithelial electrical resistance (TEER values) ([1]; VEGF final concentration 10 ng/mL): decreases transepithelial electrical resistance

O=C(NC1(c2ccccc2)CC1)c1c(CN2CCC(N3CCCCC3)CC2)c(-c2cccc(C(F)(F)F)c2)nc2cc(Br)ccc12 [Compound C, 3-(1,4′-bipiperidin-1′-ylmethyl)-7-bromo-N-(1-phenylcyclopropyl)-2-[3-(trifluoromethyl)phenyl]-4-quinolinecarboxamide]
inhibition rate of the increase in the thickness of the retinal inner nuclear layer (INL) ([2]; 250 μM): 59%
inhibition at 10 µM [1, 7]: ≥ 30%
retinal thinning (diabetic model mice; Non-Patent Literature 11): not suppressed
retinal edema (diabetic model mice; Non-Patent Literature 11): it does not
retinal edema (diabetic model mice; Patent Literature 2): suppresses retinal edema

CC(C)(O)c1cnc(N2C[C@@]3(CCC[C@](C)(Cn4cnc5ccc(C#N)cc54)C3)OC2=O)cn1 [Compound B, 1-(((5S,7S)-3-(5-(2-hydroxypropan-2-yl)pyrazin-2-yl)-7-methyl-2-oxo-1-oxa-3-azaspiro[4.5]decan-7-yl)methyl)-1H-benzo[d]imidazole-6-carbonitrile]
inhibition rate of the increase in the thickness of the retinal inner nuclear layer (INL) ([2]; 250 μM): 62%
inhibition at 10 µM ([1]; 24 h): ≥ 30%
